Laboratory results published in US20140134135A1, “METHODS AND COMPOSITIONS FOR PRESERVING LEAN BODY MASS DURING WEIGHT LOSS” (NESTEC SA, priority 2011, published 2014).

Test: Four-month weight loss study with oral OEA in the diet; body weight and body composition by DEXA
Assay type: in vivo, dogs (adult Labradors)
Excerpt: The physiological effects of regular oral OEA administration were investigated. OEA was provided as a supplement to dogs for four months to study the effect on body weight loss and body composition. Seventeen adult Labradors participated in the study. Males with greater than 22% body fat and females with greater than 26% body fat were selected. Based on maintenance energy requirements (MER), body weight and percentage of body fat, the dogs were randomly assigned into two groups. The control group (N=9) received a standard dry adult dog food (the control diet without any OEA). The test group (N=8) received the selected dose of OEA incorporated into the standard diet. The dogs were fed 25% less than their MER for 3 months and an additional 15% less for the next month. Body weight was recorded weekly and dual X-ray absorptiometry (DEXA) scans were performed at baseline and every month.

[1] = dogs fed OEA containing diet, calorie restricted, four months, chronic oral
[2] = dogs fed a weight loss diet with OEA

Compound: CCCCCCCC/C=C\CCCCCCCC(=O)NCCO [OEA, oleoylethanolamide]
- Fat Loss (g/kg body weight loss) [1]: 561 g/kg body weight loss
- Lean Loss (g/kg body weight loss) [1]: 469 g/kg body weight loss
- body fat loss versus weight loss diet without OEA (in words) [2]: more loss in body fat
- lean body mass loss versus weight loss diet without OEA (in words) [2]: reduced loss of lean body mass
- less fat lost by dogs fed the control diet than by dogs fed the OEA containing diet, for every kilogram of body weight loss (end of the four month study, control diet versus OEA diet): 52%
- less lean body mass lost than dogs fed the control diet, for every kilogram of body weight loss (end of the four month study, versus control diet): 20%
- change in body fat (end of the four month study, control diet −0.3%): −1.8%
- change in lean body mass (end of the four month study, control diet −1432.2 g): -1166.6 g
